# What was measured:
# Format in all cases: in vivo
# [1] = system: adult unfed cat fleas (Ctenocephalides felis); assay: Ctenocephalides felis oral test; details: 48 h, read-out: activity (mortality)
# Procedure, shortened: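 About 20 adult unfed fleas fed through parafilm on cattle blood containing compound (DMSO stock diluted in blood), blood held at 37 °C and fleas at room temperature. Mortality (%) scored after 2 days.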
# [2] = system: fall armyworm larvae (Spodoptera frugiperda); assay: Spodoptera frugiperda spray test; details: 168 h, read-out: activity (mortality)
# Procedure, shortened: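 Larvae of fall armyworm placed on dried maize leaf sections previously sprayed with emulsified compound (acetone/DMF solvent, water with 1000 ppm emulsifier). Percent of caterpillars killed recorded on day 7, 0–100% scale.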
# [3] = system: adult engorged female ticks (Rhipicephalus microplus); assay: Rhipicephalus (Boophilus) microplus injection test; details: 168 h, egg deposition after 7 days, read-out: activity (efficacy: infertile eggs); for pest or weed control at 4 pg: application rate 4 pg/animal; for pest or weed control at 0.02 mg: application rate 20 μg/animal
# Procedure, shortened: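 Compound in DMSO (10 mg per 0.5 mL, then diluted with DMSO to test concentration); 1 μL injected into the abdomen of each of five engorged females, then held in a climate chamber. Fertile egg deposition checked at 7 days; efficacy 100% = all eggs infertile, 0% = all fertile.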
# [4] = system: green peach aphid (Myzus persicae); assay: Myzus persicae oral test; details: 120 h, application rate 4 ppm, after 5 days
# Procedure, shortened: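 Aphids of mixed population ingest the compound preparation by sucking through a parafilm sheet stretched over wells holding test solution plus IPL41 insect medium (33%+15% sugar). Kill rate in percent is determined five days later.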
# [5] = system: cattle ticks (Rhipicephalus microplus) strain Parkhurst, SP-resistant; assay: Rhipicephalus (Boophilus) microplus dip test; details: 168 h, application rate 100 ppm, egg deposition after 7 days, read-out: activity (efficacy: infertile eggs)
# Procedure: Rhipicephalus (Boophilus) microplus—Din Test
# Test animal: cattle ticks (Rhipicephalus microplus) strain Parkhurst, SP-resistant
# Solvent: dimethyl sulfoxide
# To produce a suitable preparation of active compound, 10 mg of active compound are dissolved in 0.5 mL solvent, and the concentrate is diluted with water to the desired concentration.
# This compound solution is pipetted into tubes. 8-10 engorged, adult, female cattle ticks (Rhipicephalus microplus) are placed in perforated tubes. These tubes are immersed in the aqueous compound solution until the ticks are completely moistened. After the liquid has drained off, the ticks are transferred to a filter paper in a plastic tray and stored in a climate chamber.
# After 7 days egg deposition of fertile eggs is monitored. Eggs where fertility is not visible are stored in a climate chamber till hatching after about 42 days. An efficacy of 100% means all eggs are infertile; 0% means all eggs are fertile.
# [6] = system: Aedes aegypti strain MONHEIM; assay: Aedes aegypti test (AEDSAE surface treatment & contact assay); details: 24 hours after contact, read-out: efficacy (mortality); for mortality at 20 mg/m2: surface concentration 20 mg/m^2, exposure 30 minutes; for mortality at 4 mg/m2: surface concentration 4 mg/m^2, exposure 30 minutes
# Procedure, shortened: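 Percent mortality was read 24 h after adult MONHEIM mosquitoes were held for 30 min on a tile treated with compound. Compound applied from acetone solution (2 mg/ml) containing 2000 ppm rapeseed oil methyl ester, after evaporation.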
# [7] = system: Rhipicephalus microplus larvae (strain Parkhurst, resistant against synthetic pyrethroids); assay: Rhipicephalus (Boophilus) microplus in-vitro contact test, larval cattle tick; details: after 48 hours, read-out: activity (efficacy: larvae dead or moribund); for pest or weed control at 100 g/ha: application rate 1 pg/cm^2 (=100 g/ha); for pest or weed control at 500 g/ha: application rate 5 pg/cm^2 (=500 g/ha)
# Procedure, shortened: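 Larvae (20-50 per tube) exposed to dry compound film on glass tube walls, 5 μg/cm^2 at 900 ppm, applied from acetone. After 48 h at 27° C./85% RH, tubes tapped and negative geotaxis scored; efficacy as percent dead or moribund larvae.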
# [8] = system: adult brown dog ticks (Rhipicephalus sanguineus); assay: Rhipicephalus sanguineus in-vitro contact test, adult brown dog ticks; details: after 48 hours, read-out: activity (efficacy: ticks dead or moribund); for pest or weed control at 100 g/ha: application rate 1 pg/cm^2 (=100 g/ha); for pest or weed control at 5 µg/cm2, 500 g/ha: application rate 5 μg/cm^2 (=500 g/ha)
# Procedure, shortened: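 Glass tubes are coated with compound dissolved in acetone, a 900 ppm solution yielding 5 μg/cm^2 on the inner surface. Adult ticks (5-10 per tube) are kept on the dry film at room temperature for 48 h, then those unable to escape 45-50° C heat are counted as dead or moribund.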
# [9] = system: Culex quinquefasciatus strain P00; assay: Culex quinquefasciatus test (CULXFA surface treatment & contact assay); details: 24 hours after contact, read-out: efficacy (mortality)
# Procedure: Culex quinquefasciatus Test (CULXFA Surface Treatment & Contact Assay)
# Solvent: Aceton+2000 ppm rapeseed oil methyl ester (RME)
# In order to produce a sufficient, active ingredient containing solution it is necessary to solve the test compound in the solvent-mix (acetone at 2 mg/ml/RME 2 000 ppm). This solution is pipetted onto a glazed tile and after evaporation of the acetone, adult mosquitoes of the species Culex quinquefasciatus strain P00 are placed onto the dried surface. The exposure time is 30 minutes. Mortality in percent (%) is determined 24 hours after contact of the insects to the treated surface. 100% mortality means that all tested insects are dead, whereas 0% means that no insect died.
# [10] = system: green peach aphid (Myzus persicae); assay: Myzus persicae spray test; details: 120 h, application rate 100 g/ha, after 5 days
# Procedure, shortened: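 Chinese cabbage leaf disks carrying all instars of M. persicae sprayed with compound in acetone/DMF, diluted in water with 1000 ppm alkylarylpolyglycol ether emulsifier. Percent mortality scored after 5 days (100% = all aphids killed).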
# [11] = system: southern root-knot nematode (Meloidogyne incognita); assay: Meloidogyne incognita test; details: 336 h, application rate 20 ppm, after 14 days, read-out: nematicidal activity (based on gall formation)
# Procedure: Meloidoyne incognita—Test
# Solvent: 125.0 parts by weight of acetone
# To produce a suitable preparation of active compound, 1 part by weight of active compound is mixed with the stated amount of solvent, and the concentrate is diluted with water to the desired concentration.
# Vessels are filled with sand, a solution of the active ingredient, a suspension containing eggs and larvae of the southern root-knot nematode (Meloidogyne incognita) and salad seeds. The salad seeds germinate and the seedlings grow. Galls develop in the roots.
# After 14 days the nematicidal activity is determined based on the percentage of gall formation. 100% means no galls were found and 0% means the number of galls found on the roots of the treated plants was equal to that in untreated control plants.
# [12] = system: larvae of the banded cucumber beetle (Diabrotica balteata); assay: Diabrotica balteata spray test; details: 168 h, application rate 100 g/ha (=32 pg/well), after 7 days, read-out: activity (efficacy: seedlings grown)
# Procedure, shortened: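 Read-out is % efficacy at day 7, 0% meaning no seedling growth and 100% growth equal to uninfested untreated controls. Test solutions (acetone/DMF concentrate diluted with water carrying 1000 ppm emulsifier) were sprayed onto 1-day-germinated wheat seeds, 5 per well, before infestation with 10-20 larvae.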
# [13] = system: adult cat fleas (Ctenocephalides felis); assay: Ctenocephalides felis in-vitro contact test, adult cat flea; details: application rate 5 μg/cm^2 (=500 g/ha), after 48 hours, read-out: activity (efficacy: fleas dead or moribund)
# Procedure, shortened: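 Efficacy, as % of fleas dead or moribund, was read 48 h after 5-10 adult cat fleas were confined in glass tubes whose walls carried dried compound film (900 ppm, […]). Fleas failing to escape upward from a 45-50° C plate within 5 min counted as dead or moribund.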
# [14] = system: larvae of the southern green stink bug (Nezara viridula); assay: Nezara viridula spray test; details: 96 h, after 4 days; for mortality at 100 g/ha: application rate 100 g/ha; for mortality at 500 g/ha: application rate 500 g/ha
# Procedure, shortened: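 Larva-infested barley (Hordeum vulgare) plants received a spray of test solution prepared from an acetone/DMF concentrate diluted in emulsifier-containing water (1000 ppm). Percent kill read 4 days later; 0% means no stink bugs dead.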
SMILES,mortality at 100 ppm [1],mortality at 100 g/ha [2],pest or weed control at 4 pg [3],pest or weed control at 0.02 mg [3],mortality at 4 ppm [4],mortality at 20 mg/m2 [6],pest or weed control at 100 g/ha [7],pest or weed control at 500 g/ha [7],pest or weed control at 100 g/ha [8],"pest or weed control at 5 µg/cm2, 500 g/ha [8]",pest or weed control at 20 ppm [11],pest or weed control at 100 g/ha [12],pest or weed control at 5 µg/cm2 [13],mortality at 100 g/ha [14],also measured
C[C@H](NC(=O)c1cc(C(F)(F)F)cc(S(=O)(=O)C2CC2)c1)c1nc(C2CC2)nn1-c1ccc(C#N)cn1 [I-15],100%,100%,100%,100%,100%,80 to 100%,100%,100%,100%,100%,–,–,–,–,"pest or weed control at 100 ppm [5]: 80%; mortality at 4 mg/m2 ([9]; surface concentration 4 mg/m^2, exposure 30 minutes): 80 to 100%"
"CC(C)c1nc([C@H](C)NC(=O)c2cc(Cl)cc(S(=O)(=O)CC(F)(F)F)c2)n(-c2ccc(C#N)cn2)n1 [I-21, 3-chloro-N-{(1S)-1-[1-(5-cyanopyridin-2-yl)-3-isopropyl-1H-1,2,4-triazol-5-yl]ethyl}-5-[(2,2,2-trifluoroethyl)sulfonyl]benzamide]",–,–,100%,100%,–,–,–,–,–,–,90%,–,–,–,mortality at 100 g/ha [10]: 90%
C[C@H](NC(=O)c1cc(Cl)cc(S(=O)(=O)C2CC2)c1)c1nc(C2CC2)nn1-c1ccc(C#N)cn1 [I-22],100%,100%,100%,100%,100%,–,100%,100%,–,80%,100%,100%,–,–,–
CCS(=O)(=O)c1cc(Cl)cc(C(=O)N[C@@H](C)c2ncnn2-c2ccc(C#N)cn2)c1 [II-20],–,83%,100%,100%,100%,80 to 100%,100%,100%,–,–,90%,–,100%,100%,"mortality at 500 g/ha [2]: 100%; mortality at 4 mg/m2 [6]: 80 to 100%; mortality at 500 g/ha [14]: 100%; mortality at 20 mg/m2 ([9]; surface concentration 20 mg/m^2, exposure 30 minutes): 80 to 100%"
C[C@H](NC(=O)c1cc(Cl)cc(S(=O)(=O)C2CC2)c1)c1ncnn1-c1ccc(C#N)cn1 [II-21],–,100%,100%,100%,100%,80 to 100%,100%,100%,–,–,90%,–,100%,90%,mortality at 500 g/ha [2]: 100%; mortality at 4 mg/m2 [6]: 80 to 100%; mortality at 500 g/ha [14]: 100%
C[C@H](NC(=O)c1cc(C(F)F)cc(C2CC2)c1)c1ncnn1-c1ccc(C#N)cn1 [II-60],90%,100%,100%,–,100%,–,100%,100%,100%,100%,90%,100%,100%,90%,–
Cc1nc([C@H](C)NC(=O)c2cc(OC(F)F)cc(C3CC3)c2)n(-c2ccc(C#N)cn2)n1 [II-63],–,100%,100%,–,100%,–,100%,100%,100%,100%,90%,100%,100%,–,mortality at 100 g/ha [10]: 100%
